Results published in patent US10654884B2 (Vitae Pharmaceuticals, Inc., priority 2014, dated 2020).

Legend:
[1] = biological target: T1, human CD73 (Homo sapiens, UniProt P21589); experiment: Inhibition of 5′-Nucleotidase Activity of CD73 (Assay 1); format: biochemical; settings: human CD73 4 ng/ml, 50 μM CMP, 20 min at RT, malachite green readout; read-out: Assay 1: IC50, inhibition of 5′-nucleotidase activity of CD73
T1 construct: purchased R&D Systems 5795-EN-010
T1 sequence (P21589 27-549): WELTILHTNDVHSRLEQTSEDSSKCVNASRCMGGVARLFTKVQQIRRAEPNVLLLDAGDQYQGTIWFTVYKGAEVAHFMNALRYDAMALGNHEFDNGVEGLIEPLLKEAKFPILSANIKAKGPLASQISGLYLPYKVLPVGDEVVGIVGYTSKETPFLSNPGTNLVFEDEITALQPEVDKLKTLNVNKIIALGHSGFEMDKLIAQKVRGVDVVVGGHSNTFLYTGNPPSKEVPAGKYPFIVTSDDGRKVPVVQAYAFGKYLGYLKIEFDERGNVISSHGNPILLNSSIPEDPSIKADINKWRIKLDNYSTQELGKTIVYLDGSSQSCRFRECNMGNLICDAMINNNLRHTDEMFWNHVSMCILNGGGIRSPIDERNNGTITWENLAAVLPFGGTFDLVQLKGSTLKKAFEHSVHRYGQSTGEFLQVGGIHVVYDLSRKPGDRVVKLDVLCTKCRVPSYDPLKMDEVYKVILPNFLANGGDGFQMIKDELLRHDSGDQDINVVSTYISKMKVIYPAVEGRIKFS
Method: Inhibition of 5′-Nucleotidase Activity of CD73 (Assay 1)
Compounds of the present invention were tested for the ability to inhibit CD73 enzyme activity. Tested compounds were dissolved in DMSO (50× final concentration), and 3.2 μL of the solutions added to 96-well polystyrene plates. To these wells were added, 100 μL of human CD73 (R&D Systems Cat. No. 5795-EN-010) and 57 μL of cytidine-5′-monophosphate (CMP) solutions in assay buffer (25 mM Tris-HCl, pH 7.4, 0.005% Brij-35) were added to achieve final concentrations in the assay of 4 ng/ml CD73 and 50 μM of CMP. The assay mixture was incubated for 20 min at RT. The reaction was stopped by addition of 40 μL of malachite green reagent which was prepared by mixing together 10 ml 2M H2SO4, 2.5 ml of 15% ammonium molybdate and 0.2 ml of 11% Tween-20. The mixture was agitated vigorously for 10 min at RT, and absorbance at 620 nm was determined on a microplate spectrophotometer. […] The IC50 values were derived using a non-linear 4 parameter logistic model (XLFit software, IDBS) and correspond to the inflection points on dose-response curves.

[2] = biological target: T2, CD73 on U138 neuroglioma cells (Homo sapiens, UniProt P21589); experiment: Inhibition of Ecto-5′-Nucleotidase Activity in U138 Neuroglioma Cells (Assay 2); format: cell-based; settings: 50 μM CMP, 2 hr at 37° C., malachite green readout, read-out: Assay 2: IC50, inhibition of ecto-5′-nucleotidase activity in U138 neuroglioma cells
T2 construct: U138 neuroglioma cells, which express CD73 on their surface; endogenous in cells; host or cells: U138 neuroglioma cells (ATCC)
T2 sequence (P21589 27-549): T1 sequence (P21589 27-549)
Method: Inhibition of Ecto-5′-Nucleotidase Activity in U138 Neuroglioma Cells (Assay 2)
U138 cells were obtained from the American Type Culture Collection (ATCC) (Manassas, Va.), and cultured in complete growth media (DMEM, 10% FBS, 1 mM L-glutamine, 100 U penicillin-streptomycin) at 37° C., 5% CO2. The day before the experiment, cells were seeded at 2,500 cells/well in 100 μL of complete media into 96-well plates. Cells were washed twice with 200 μL of assay buffer (20 mM HEPES, pH 7.4, 137 mM NaCl, 5.4 mM KCl, 1.3 mM CaCl2, 4.2 mM NaHCO3, 1 mg/mL glucose) to remove residual inorganic phosphate. After washing, assays contained serial dilutions of test compounds and 50 μM of cytidine-5′-monophosphate (CMP) in a total volume of 200 μL of assay buffer, with a final DMSO concentration ≤0.1%. After 2 hr at 37° C., 5% CO2, 100 μL of supernatant was removed from the cells and the concentration of inorganic phosphate was determined using malachite green reagent. IC50 values for test compounds were determined from nonlinear regression fits of the data using XLfit (IDBS).

CNc1ncnc2c1ncn2[C@@H]1O[C@H](COC(C(=O)O)P(=O)(O)O)[C@@H](O)[C@H]1O (stereo partly drawn) [Example 67, 2-(((2R,3S,4R,5R)-3,4-dihydroxy-5-(6-(methylamino)-9H-purin-9-yl)tetrahydrofuran-2-yl)methoxy)-2-phosphonoacetic acid]
IC50 [1]: 100 to 1000 nM | IC50 [2]: > 1000 nM

O=C(O)C(OC[C@H]1O[C@@H](n2cnc3c(N[C@@H]4CCOC4)nc(Cl)nc32)[C@H](O)[C@@H]1O)C(=O)O [Example 69, (R)-2-(((2R,3S,4R,5R)-5-(2-chloro-6-(((R)-tetrahydrofuran-3-yl)amino)-9H-purin-9-yl)-3,4-dihydroxytetrahydrofuran-2-yl)methoxy)malonic Acid]
IC50 [1]: 100 to 1000 nM | IC50 [2]: > 1000 nM

CC(C)(C)OC(=O)[C@H](OC[C@H]1O[C@@H](n2cnc3c(N)nc(Cl)nc32)[C@H](O)[C@@H]1O)P(=O)(O)O (single isomer, unassigned) [Example 15]
IC50 [1]: < 100 nM | IC50 [2]: < 100 nM

CCOC(=O)[C@H](OC[C@H]1O[C@@H](n2cnc3c(N)nc([C@@H]4NCCO4)nc32)[C@H](O)[C@@H]1O)P(=O)(O)O (single isomer, unassigned) [Example 51]
IC50 [1]: 100 to 1000 nM | IC50 [2]: > 1000 nM

CCOC(=O)[C@H](OC[C@H]1O[C@@H](n2cnc3c(N)nc(F)nc32)[C@H](O)[C@@H]1O)P(=O)(O)O (single isomer, unassigned) [Example 52a]
IC50 [1]: 100 to 1000 nM | IC50 [2]: > 1000 nM

CC(C)(C)OC(=O)C(OC[C@H]1C[C@@H](n2cnc3c(N)nc(Cl)nc32)[C@H](O)[C@@H]1O)P(=O)(O)O (single isomer, unassigned) [Example 78a]
IC50 [1]: 100 to 1000 nM | IC50 [2]: > 1000 nM

Nc1nc(Cl)nc2c1ncn2[C@@H]1O[C@H](COC(C(=O)O)C(=O)O)[C@@H](O)[C@H]1O [Example 3, 2-(((2R,3S,4R,5R)-5-(6-amino-2-chloro-9H-purin-9-yl)-3,4-dihydroxytetrahydrofuran-2-yl)methoxy)malonic acid]
IC50 [1]: < 100 nM | IC50 [2]: 100 to 1000 nM

CNc1nc(Cl)nc2c1ncn2[C@@H]1O[C@H](COC(C)(C(=O)O)C(=O)O)[C@@H](O)[C@H]1O [Example 2, (2-(((2R,3S,4R,5R)-5-(2-chloro-6-(methylamino)-9H-purin-9-yl)-3,4-dihydroxytetrahydrofuran-2-yl)methoxy)-2-methylmalonic Acid)]
IC50 [1]: 100 to 1000 nM | IC50 [2]: 100 to 1000 nM

CCOC(=O)C(OC[C@H]1C[C@@H](n2nnc3c(N[C@H]4CCOC4)nc(Cl)nc32)[C@H](O)[C@@H]1O)P(=O)(O)O (stereo partly drawn) [Example 91, (1-(((1R,2R,3S,4R)-4-(5-chloro-7-(((S)-tetrahydrofuran-3-yl)amino)-3H-[1,2,3]triazolo[4,5-d]pyrimidin-3-yl)-2,3-dihydroxycyclopentyl)methoxy)-2-ethoxy-2-oxoethyl)phosphonic Acid]
IC50 [1]: < 100 nM | IC50 [2]: < 100 nM

O=C(O)C(OC[C@H]1O[C@@H](n2cnc3c(N4CCC(O)CC4)ncnc32)[C@H](O)[C@@H]1O)P(=O)(O)O (stereo partly drawn) [Example 66, 2-(((2R,3S,4R,5R)-3,4-dihydroxy-5-(6-(4-hydroxypiperidin-1-yl)-9H-purin-9-yl)tetrahydrofuran-2-yl)methoxy)-2-phosphonoacetic acid]
IC50 [1]: 100 to 1000 nM | IC50 [2]: > 1000 nM

CCOC(=O)[C@H](OC[C@H]1C[C@@H](n2cnc3cccc(Br)c3c2=O)[C@H](O)[C@@H]1O)P(=O)(O)O (single isomer, unassigned) [Example 72]
IC50 [1]: 100 to 1000 nM | IC50 [2]: > 1000 nM

CCOC(=O)[C@H](OC[C@H]1O[C@@H](n2cnc3c(N)nc(Cc4ccccc4)nc32)[C@H](O)[C@@H]1O)P(=O)(O)O (single isomer, unassigned) [Example 39]
IC50 [1]: < 100 nM | IC50 [2]: 100 to 1000 nM

COc1nc(OC)c2ncn([C@@H]3O[C@H](COC(C(=O)O)P(=O)(O)O)[C@@H](O)[C@H]3O)c2n1 (stereo partly drawn) [Example 33a, 2-(((2R,3S,4R,5R)-5-(2,6-dimethoxy-9H-purin-9-yl)-3,4-dihydroxytetrahydrofuran-2-yl)methoxy)-2-phosphonoacetic acid]
IC50 [1]: 100 to 1000 nM | IC50 [2]: > 1000 nM

CCOC(=O)[C@@H](OC[C@H]1O[C@@H](n2cnc3c(C)nc(Cl)nc32)[C@H](O)[C@@H]1O)P(=O)(O)O (single isomer, unassigned) [Example 28a]
IC50 [1]: 100 to 1000 nM | IC50 [2]: > 1000 nM

O=C(O)C(OC[C@H]1O[C@@H](n2cnc3c(Cl)nc(Cl)nc32)[C@H](O)[C@@H]1O)P(=O)(O)O (stereo partly drawn) [Example 62, 2-(((2R,3S,4R,5R)-5-(2,6-dichloro-9H-purin-9-yl)-3,4-dihydroxytetrahydrofuran-2-yl)methoxy)-2-phosphonoacetic acid]
IC50 [1]: < 100 nM | IC50 [2]: 100 to 1000 nM

CCNC(=O)[C@H](OC[C@H]1O[C@@H](n2cnc3c(NCC)nc(Cl)nc32)[C@H](O)[C@@H]1O)P(=O)(O)O (single isomer, unassigned) [Example 34]
IC50 [1]: < 100 nM | IC50 [2]: 100 to 1000 nM

Nc1nc(Cl)nc2c1ncn2[C@@H]1O[C@H](COC(Cc2ccc(F)cc2)(C(=O)O)C(=O)O)[C@@H](O)[C@H]1O [Example 4, 2-(((2R,3S,4R,5R)-5-(6-amino-2-chloro-9H-purin-9-yl)-3,4-dihydroxytetrahydrofuran-2-yl)methoxy)-2-(4-fluorobenzyl)malonic acid]
IC50 [1]: < 100 nM | IC50 [2]: < 100 nM

Nc1nc(Cl)nc2c1ncn2[C@@H]1O[C@H](COC(Cc2ccc(Cl)cc2)(C(=O)O)C(=O)O)[C@@H](O)[C@H]1O [Example 47, 2-(((2R,3S,4R,5R)-5-(6-amino-2-chloro-9H-purin-9-yl)-3,4-dihydroxytetrahydrofuran-2-yl)methoxy)-2-(4-chlorobenzyl)malonic acid]
IC50 [1]: < 100 nM | IC50 [2]: < 100 nM

CCOC(=O)[C@](CC(=O)O)(OC[C@H]1O[C@@H](n2cnc3c(N)nc(F)nc32)[C@H](O)[C@@H]1O)P(=O)(O)O (single isomer, unassigned) [Example 79]
IC50 [1]: 100 to 1000 nM | IC50 [2]: > 1000 nM

CCNc1nc(Cl)nc2c1ncn2[C@@H]1O[C@H](CO[C@@](C)(C(=O)OCC)P(=O)(O)O)[C@@H](O)[C@H]1O [Example 29, ((R)-2-(((2R,3S,4R,5R)-5-(2-chloro-6-(ethylamino)-9H-purin-9-yl)-3,4-dihydroxytetrahydrofuran-2-yl)methoxy)-1-ethoxy-1-oxopropan-2-yl)phosphonic Acid]
IC50 [1]: < 100 nM | IC50 [2]: < 100 nM

O=C(O)C(OC[C@H]1O[C@@H](n2cnc3c(N[C@@H]4CCOC4)nc(Cl)nc32)[C@H](O)[C@@H]1O)C(=O)O [Example 68, 2-(((2R,3S,4R,5R)-5-(2-chloro-6-(((R)-tetrahydrofuran-3-yl)amino)-9H-purin-9-yl)-3,4-dihydroxytetrahydrofuran-2-yl)methoxy)malonic acid]
IC50 [1]: < 100 nM | IC50 [2]: 100 to 1000 nM

Nc1nc(I)nc2c1ncn2[C@@H]1O[C@H](CO[C@H](C(=O)O)P(=O)(O)O)[C@@H](O)[C@H]1O [Example 59, (S)-2-(((2R,3S,4R,5R)-5-(6-amino-2-iodo-9H-purin-9-yl)-3,4-dihydroxytetrahydrofuran-2-yl)methoxy)-2-phosphonoacetic Acid]
IC50 [1]: < 100 nM | IC50 [2]: 100 to 1000 nM

CCOC(=O)[C@H](OC[C@H]1O[C@@H](n2cnc3c(N)nc(C4CC4)nc32)[C@H](O)[C@@H]1O)P(=O)(O)O (single isomer, unassigned) [Example 50]
IC50 [1]: 100 to 1000 nM | IC50 [2]: > 1000 nM
